Reference: US20100267638A1, “EXOSITE-DIRECTED THROMBIN INHIBITORS” (CLEVELAND STATE UNIVERSITY, priority 2003, published 2010)
Where “and” joins values, the source holds several entries; their conditions need not be identical. Equal values may be shown once. Entries after “also recorded” stand apart in the source; their conditions may differ. Values belong to the substance of their own block, whether it stands above or below them. No end group written: not given here. *: point of attachment. SO3 = O=S(=O)(O)*

Key:
factor Xa = factor Xa (Homo sapiens, UniProt P00742); test: Cofactor effect of factor Va heavy chain peptides on factor Xa alone; format: biochemical; conditions: peptide incubated with factor Xa alone
Chain of factor Xa (P00742 235-488 limits assumed): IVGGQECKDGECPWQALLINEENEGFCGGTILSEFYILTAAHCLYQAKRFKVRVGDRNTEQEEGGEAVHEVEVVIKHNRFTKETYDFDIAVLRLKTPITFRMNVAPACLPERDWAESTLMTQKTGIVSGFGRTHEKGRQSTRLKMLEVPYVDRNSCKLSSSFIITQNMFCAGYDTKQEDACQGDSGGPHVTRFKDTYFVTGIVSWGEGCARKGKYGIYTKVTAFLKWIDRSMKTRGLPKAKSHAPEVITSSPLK
Chain of factor Xa (P00742 41-179 limits assumed): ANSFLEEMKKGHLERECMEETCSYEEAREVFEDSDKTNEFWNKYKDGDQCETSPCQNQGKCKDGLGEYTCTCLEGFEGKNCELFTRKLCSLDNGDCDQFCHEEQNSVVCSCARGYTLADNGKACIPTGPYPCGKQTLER

prothrombinase = target: T1, prothrombinase (Homo sapiens, UniProt P00734); test: Assay measuring thrombin formation (prothrombinase inhibition by peptides, DAPA fluorescence); format: biochemical; conditions: for inhibition of prothrombinase activity with increasing peptide: FIG. 10A, up to 8000 nM; for effect on prothrombinase / factor Va cofactor activity at fixed concentration: peptide 100 μM
T1 construct: purchased Haematologic Technologies Inc. (Essex Junction, Vt.)
Protocol: Assay measuring thrombin formation. The formation of thrombin was analyzed using the fluorescent thrombin inhibitor DAPA as described using a Perkin Elmer LS-50B Luminescence Spectrometer (Perkin-Elmer LLC, Norwalk Conn.) with λex=280 nm, λem=550 nm and a 500 nm long pass filter in the emission beam (Schott KV-500). […] In all cases peptides were preincubated with factor tor Va prior to the assay as described in the legend to the figures. The final concentration of factor tor Va in the mixture was 4 nM with factor Xa at 10 nM, prothrombin at 350 nM, DAPA at 700 nM, in the presence of PCPS vesicles (10 μM). The initial rate of thrombin formation (nM IIa·min^−1) was calculated as described during the initial 5-10 sec of the reaction. To verify if the peptides have any effect on the active-site of thrombin, control experiments were performed as follows: a given peptide (at 100 μM) was incubated in the assay buffer containing DAPA (700 nM); the base line was monitored for 30 sec; thrombin (350 nM) was then added to the mixture and the fluorescent intensity resulting from the complexation of DAPA with the active site of thrombin was monitored for 60 sec. The slope of the reaction measuring thrombin formation in the presence of a given peptide during the first 5 sec was calculated and compared to the slope of a reaction obtained in the absence of peptide. It is noteworthy that under the conditions employed the thrombin-DAPA interaction occurred fast and the calculated slope of the reaction was sensitive to all parameters used. […] All experiments were performed in triplicates or as indicated. The concentration of each peptide given in the figures and figure legends is their final concentration in the assay. […] In some cases the data were also analyzed and plotted using DeltaGraph (DeltaPoint, Monterey, Calif.).
Specifically, peptides were incubated with factor tor Va as described herein at a fixed concentration (100 μM). The percent of factor tor Va cofactor activity was calculated by comparing the activity of prothrombinase in the presence of a given peptide to the activity of prothrombinase determined in a control reaction in the absence of peptide and in the presence of factor Xa. […] The control peptide represents a pentadecapeptide from the middle portion of factor tor Va heavy chain (P15H) (SEQ ID NO. 22). […] All other peptides from region 680-709 had no significant effect on prothrombinase activity.
HC3 represents amino acid sequence 690-699 of factor tor Va heavy chain; HC4 contains the sequence 695-704 of human factor tor Va heavy chain; P15H represents amino acid sequence 337-351 from the middle portion of human factor tor Va heavy chain. […] The concentration of each peptide given on the x axis represents its final concentration in the prothrombinase mixture. […] Thus, both peptides show similar inhibitory potential.

[1] = Clotting time as a function of peptide concentration (FIG. 12); conditions: peptide 500 nM
Excerpt: FIG. 12 is a graph illustrating clotting time as a function of concentration of various peptides of interest as follows: DYDYQ (SEQ ID NO. 11) (filled squares); DYDYQ (1, 2) (or as designated in shorthand form, D5Q1,2) (SEQ ID NO. 9) (filled triangles); DYDYQ-1 (SEQ ID NO. 7) (filled inverted triangles); and DYDYQ-2 (SEQ ID NO. 8) (filled diamonds).

[2] = target: T2, [OG488]-EGR-hXa-human factor tor Va (Homo sapiens, UniProt P00742); test: Fluorescence anisotropy of preformed membrane-bound [OG488]-EGR-hXa-factor Va complex; format: binding; conditions: up to 300 μM peptide
T2 construct: purchased Haematologic Technologies Inc. (Essex Junction, Vt.)
T2 sequence (P00742 41-179 limits assumed): as above
T2 sequence (P00742 235-488 limits assumed): as the sequence (P00742 235-488 limits assumed) above
Protocol: Fluorescence Anisotropy measurements. Fluorescence anisotropy of [OG488]-EGR-hXa was measured using a Perkin Elmer LS-50B Luminescence Spectrometer in L-format as recently described. Anisotropy measurements were performed in a quartz cuvette under constant stirring (low) with λex=490 nm, λem=520 nm with a long pass filter (Schott KV-520) in the emission beam. […] The concentration of peptide given in each graph is the final concentration of the peptide in the assay mixture. […] In some cases the data were also plotted using DeltaGraph (DeltaPoint, Monterey, Calif.).
HC3 and HC4 were also tested for their ability to interfere with the fluorescence anisotropy of a preformed complex composed of membrane-bound [OG488]-EGR-hXa-human factor tor Va as described. […] The peptides must thus impair another function of the cofactor within prothrombinase.

[3] = target: T3, active-site-immobilized thrombin (Homo sapiens, UniProt P00734); test: Direct binding of the peptides to thrombin-agarose (chromatography); conditions: 400 μg peptide, 2.5 ml column, elution 2M NaCl
T3 construct: Factor Xa cleaves prothrombin to form thrombin; purchased Haematologic Technologies Inc. (Essex Junction, Vt.)
Protocol: Direct binding of the peptides to thrombin. Thrombin was immobilized onto agarose through the active site as described. Peptide solutions of HC1-HC5 (SEQ ID NO. 2-6, respectively), D13R (SEQ ID NO. 21), DYDYQ (SEQ ID NO. 11), and P15H (SEQ ID NO. 22) were dissolved in water to a given concentration and then diluted in 20 mM Hepes, 0.1 M NaCl, pH 7.4 in a manner that 400 μg was contained in each starting solution. In control experiments it was determined that the maximum amount of peptide that could be retained by the thrombin-agarose column was 400 μg. Since some of the peptides contain aromatic amino acid residues, their concentration was also measured by optical density.
Mass spectrometry instruments and conditions. The identity of all peptides found in the flow-through or the elution of the thrombin-agarose column was verified by mass spectrometry. Since the peptides were in a buffer solution, we used Liquid Chromatography/Mass Spectrometry (LC/MS) for their identification. In this procedure peptides are first separated from the salt content of the buffer using an HPLC system (HP 1100, HPLC gradient system, Agilent Technologies, Palo Alto Calif.) with a C18 column (1 mm×15 cm, GraceVydac, Hesperia Calif.) with buffers A (0.3% acetic acid in water) and B (0.3% acetic acid in acetonitrile). The elution of the column was monitored with a Micromass Quatro II ESI-Triple Quadrupole Mass Spectrometer (Waters, Milford Mass.). The data were collected using a Compaq Professional Workstation AP200 (Hewlett-Packard, Palo Alto Calif.) and analyzed by the software MassLynx v3.3 (Waters, Milford Mass.).
Direct interaction of hirudin-like peptides from factor tor Va heavy chain With thrombin-agarose. To ascertain that the peptides of interest are inhibitory of prothrombinase activity and contain a binding site for thrombin, the interaction of all peptides with active-site-immobilized thrombin was studied in chromatographic experiments and is shown in FIG. 5. In FIG. 5, small scale chromatography of hirudin-like peptides was performed on a 2.5 ml thrombin-agarose. Each run represents 400 μg of peptide. This amount of peptide was determined to saturate the specific sites of thrombin of the column used (2.5 ml). Elution was performed with 2M NaCl and was started at the point indicated by the arrow (fraction #30). The presence of the peptides in the corresponding fractions was monitored by absorbance at 280 nm (shown on the y axis) and by LC/MS (inset). […] Specifically, these peptides were treated similarly to all other peptides and similar fractions were collected. Aliquots from fractions #7 and #35 from each separate experiment were submitted to LC/MS analysis as described herein (depicted by the hatched arrows at the bottom of the chromatogram). The results from tube #7 from three chromatograms are depicted. The data are presented as % intensity of the signal as a function of the mass of the peptide divided by the charge (m/z). FIG. 5A, HC1 (Mr calculated 1268); FIG. 5B, HC2 (Mr calculated 1132); FIG. 5C, HC5 (Mr calculated 1053). The spectrum of HC1 has two major peaks: at 635.5 and at 424, and one minor peak at 1270 (1268+1). The peak at 635.5 represents the peptide (mass/charge) with two positive charges ([…]) i.e. [(1268+2=1270)]/2=635 whereas, the peak at 424 represents HC1 with three positive charges ([…]) i.e. [(1268+3=1271)]/3=424. […] HC5 spectrum has two major peaks: one at 528 and one at 352. The peak at 528 represents the peptide with two positive charges ([…]) i.e. [(1053+2=1055)]/2=527.5 while, the other peak represents HC5 with three positive charges ([M+31-]^2+) i.e. [(1053+3=1056)]/3=352. The minor peak at 1054 represents the peptide with one charge. It is noteworthy, that in gas phase the number of protons attached to each peptide depends on the number (quantity) of basic residues contained in each peptide. […] Thus, HC1 and HC5 are more likely to bind two or three protons than HC2. […]

[4] = test system: factor V deficient plasma; test: Clotting activity of recombinant factor V molecules; conditions: for Activity / Specific activity / clotting time: factor V species at 2.5 nM
Protocol: Determination of factor V/tor Va clotting activity of the recombinant molecules. Cofactor activity of wild type and mutant molecules was measured in a clotting assay using factor V deficient plasma prior and after activation by thrombin (15 min, 37° C.) and RVV-V activator (2 hr, 37° C.) as described. The values were standardized to the percentage of control. A linear semi-log graph was constructed using known concentrations of purified factor V (U/ml as a function of clotting time). The assay endpoint was determined by visualization of the fibrin clot. The activity of the factor VNa solution (U/ml) was determined by extrapolation from the graph. The concentration of the recombinant molecules was determined by a recently described ELISA. Finally, the numbers were combined to obtain the specific activity of the recombinant factor V solutions (U/mg).

inhibition of prothrombinase activity with increasing peptide (prothrombinase): significant inhibitory effects
Substance: DY(—SO3)DYQ (DY(SO3)DYQ) [DYDYQ-1, DYDYQ with first Y sulfonated]
clotting time [1]: relatively long clotting times

cofactor effect on factor Xa (factor Xa): generated a cofactor effect
Substance: E5A: five amino acid peptide, residues 323-327, from N42R (EYFIA; listed as Homo sapiens)

interaction with immobilized thrombin (thrombin-agarose) [3]: present in the flow-through
Substance: HC1: overlapping 10 amino acid peptide from region 680-709 of human factor Va heavy chain (KMHDRLEPED; listed as Homo sapiens)

interaction with immobilized thrombin (thrombin-agarose) [3]: present in the flow-through
Substance: HC2: overlapping 10 amino acid peptide from region 680-709 of human factor Va heavy chain (LEPEDEESDA; listed as Homo sapiens)

interaction with immobilized thrombin (thrombin-agarose) [3]: did not interact with thrombin
Substance: P15H: negative control pentadecapeptide, amino acid sequence 337-351 from the middle portion of human factor Va heavy chain (PVIPANMDKKYRSQH) [reference compound]
effect on prothrombinase / factor Va cofactor activity at fixed concentration (prothrombinase): no effect on cofactor activity; also recorded: no effect on prothrombinase function

Continued, substance first:

Substance: AP4′: nine amino acid peptide, residues 323-331, from N42R (EYFIAAEEV; listed as Homo sapiens)
cofactor effect on factor Xa (factor Xa): generated a cofactor effect

Substance: DYDY(—SO3)Q (DYDY(SO3)Q) [DYDYQ-2, DYDYQ with second Y sulfonated]
inhibition of prothrombinase activity with increasing peptide (prothrombinase): significant inhibitory effects | clotting time [1]: relatively long clotting times

Substance: DYDYQNRLAA [HC4]
Vmax of prothrombinase in presence of increasing peptide (prothrombinase; HC4 0.5-2 μM, increasing prothrombin): ~525±30 nM IIa/min | Ki (prothrombinase; calculated from IC50=Ki(1+S0/Km), Km 0.4 μM, S0 350 nM prothrombin, read-out: Ki of prothrombinase inhibition): 5.3 µM and ~5.3 µM | IC50 (prothrombinase; factor Va 4 nM, factor Xa 10 nM, prothrombin 350 nM, PCPS 10 μM, peptide preincubated with factor Va): 10 µM and ~10 µM | type of inhibition of prothrombinase with respect to prothrombin (prothrombinase; kinetic analyses, increasing prothrombin and peptide): competitive type of inhibition; also recorded: competitive inhibitors | effect on prothrombinase / factor Va cofactor activity at fixed concentration (prothrombinase): inhibited prothrombinase; also recorded: complete inhibition | interference with binding of factor Va to [OG488]-EGR-hXa (anisotropy) [2]: No significant decrease; also recorded: unable to interfere with the binding of factor tor Va | interaction with immobilized thrombin (thrombin-agarose) [3]: eluted from the column with high-salt buffer; also recorded: interact with immobilized thrombin

Substance: Factor V^2K2F: quadruple mutant, recombinant human factor V with mutations D695→K, Y696→F, D697→K, Y698→F
ability to promote clotting [4]: unable to promote clotting | Activity [4]: 0.0046 U/ml | Specific activity [4]: 5.6 U/mg | clotting time [4]: 66.7 ± 1.3 s

Substance: N42R: 42 amino acid peptide from the middle portion of factor Va heavy chain, residues 307-351 of factor V (NLKKITREQRRHMKRWEYFIAAEEVIWDYAPVIPANMDKKYR; listed as Homo sapiens)
cofactor effect on factor Xa (factor Xa): increasing the catalytic efficiency of the enzyme by several-fold

Substance: Wild type FV: recombinant wild type human factor V expressed in COS-7L cells
specific clotting activity after activation by RVV-V activator ([4]; activated by RVV-V activator): 570 U/mg | specific clotting activity after activation by thrombin ([4]; activated by thrombin): 497 U/mg | Activity [4]: 0.12 U/ml | Specific activity [4]: 145 U/mg | clotting time [4]: 32.1 ± 1.2 s
